Test results as given in patent publication US20230372272A1, “USE OF CYSTINE AND DERIVATIVES THEREOF AS ANTI-THROMBOTIC AND THROMBOLYTIC AGENTS” (Georgia Tech Research Corporation, priority 2020, published 2023).

How the values were obtained:
[1] = tested on: VWF- and platelet-rich white thrombi; assay: Lysis of platelet-rich white thrombi in collagen-coated stenotic capillary tube under arterial shear (perfusion of lytic agents); assay type: cell-based, Porcine
Protocol: Collagen Coating: The stenotic glass test sections (inner diameter=1.5 mm) described herein were made by the Chemistry and Biochemistry Glass Shop at Georgia Institute of Technology. The % stenosis by diameter reduction ranged from 60% to 80%. Fibrillar equine collagen (type I; Chrono-Log Corporation, Havertown, PA) was diluted 9:1 in NaCl (Sigma-Aldrich, St. Louis, MO) and incubated in the test section at the stenosis for 24 h in a warm, moist environment (Para, A., Bark, D., Lin, A. & Ku, D. Rapid platelet accumulation leading to thrombotic occlusion. Ann Biomed Eng 39, 1961-1971, 2011; Para, A. N. & Ku, D. N. A low-volume, single pass in-vitro system of high shear thrombosis in a stenosis. Thromb Res 131, 418-424, 2013).
(§1) Blood Collection: Porcine blood was collected at a local abattoir immediately following slaughter into 3.5 U/mL heparin (Thermo Fisher Scientific, Waltham, MA) or 3.2% sodium citrate (Sigma-Aldrich, St. Louis, MO). Whole blood was gently agitated using an Orbit LS shaker (Laboratory Supply Network, Atkinson, NH) until perfusion and used in experiments as soon as possible the same day as collection.
Syringe Perfusion: Lightly heparinized whole blood was perfused through the stenotic test section using a syringe pump. The flow rate was set so that the initial wall shear rate in the stenosis was 3,500 s^−1. A pressure transducer was connected in-line upstream of the stenosis (FIG. 2A). A dissecting microscope with a camera (PCO-Tech Incorporated, Romulus, MI) was used to capture images in real-time during perfusion. Blood perfusion continued until the upstream pressure increased by 30 mmHg (equivalent to an arterial pressure head in vivo) as a result of platelet thrombus formation in the stenotic section. Perfusion with a syringe pump (constant flow rate over constant pressure head) ensured that the thrombi were never fully occlusive, allowing subsequent perfusion for the induction of lysis.
Pharmacologic Agents: Recombinant human tPA (Sigma-Aldrich, St. Louis, MO), recombinant human ADAMTS-13 (MyBiosource, San Diego, CA), abciximab (ReoPro was kindly provided by Dr. Kevin Maher at Emory/CHOA), NAC (Thermo Fisher Scientific, Waltham, MA), and DiNAC (Cayman Chemical, Ann Arbor, Ml) or control (PBS) treatments were perfused for an hour at a flow rate of 1 ml/min. Agent solutions were made by dissolution or dilution in PBS. The in vitro flow system setup and image acquisition are shown in FIG. 2, and the concentrations of each agent are detailed in Table 2.
Real-time image capture (5 frames per second) of the stenosis continued throughout treatment perfusion.
Data Analysis: The thrombi surface area (which was colored green) was calculated using manual pixel counting in the open-source GNU Image Manipulation Program (GIMP, Version 2.10.8, 1995-2018). Surface area reduction was calculated by % pixel reduction versus the occlusion image. Analysis of variance (ANOVA) was used to test for statistical differences between groups, with the significance set at p<0.05.
In this example, a stenotic capillary tube model, which potentiates VWF- and platelet-rich white thrombi in an arterial setting on a collagen-coated stenosis was used (Para, A., Bark, D., Lin, A. & Ku, D. Rapid platelet accumulation leading to thrombotic occlusion. Ann Biomed Eng 39, 1961-1971, 2011; Ku, D. N. & Flannery, C. J. Development of a flow-through system to create occluding thrombus. Biorheology 44, 273-284, 2007; Para, A. N. & Ku, D. N. A low-volume, single pass in-vitro system of high shear thrombosis in a stenosis. Thromb Res 131, 418-424, 2013) to test lysis of 90% occlusive white thrombi (FIG. 2) and perfused low (2 mM) and high (20 mM) concentrations of NAC and DiNAC solutions. As illustrated in FIG. 2. DiNAC, but not NAC, achieved thrombolysis over 60 minutes of perfusion (FIG. 3A-3D). 2 mM and 20 mM DiNAC lysed most of the thrombi (>95%) within 14 min and 1.5 min, respectively (FIG. 3A-3B).

[2] = tested on: fibrin clots from recalcified citrated whole blood; assay: Red clot lysis under stagnant conditions, whole blood clots; assay type: cell-based, Porcine; settings: for whole blood clot lysis over 48 h: DiNAC and NAC at 2 mM
Source text: as §1
(§2) Red clot formation and lysis: Platelet rich plasma (PRP) was made by separating citrated whole blood via gravity over a 2 h period and collecting the supernatant. Separation via gravity was employed instead of centrifugation to avoid platelet damage and activation. Citrated whole blood or PRP was then recalcified with CaCl2 to a final [Ca^2+] of 10 mM (Griffin, M. T., Kim, D. & Ku, D. N. Shear-induced platelet aggregation: 3D-grayscale microfluidics for repeatable and localized occlusive thrombosis. Biomicrofluidics 13, 2019), and 200 μl was transferred into 500 μal centrifuge tubes and allowed to clot and retract for 30 min. The clot was then incubated with 100 μl of either agent or control solution. The treatment solution was exchanged by removing the top 100 μl and replacement with fresh solution at 3, 6, 12, 24, and 48 h of incubation. The weight of the tube was measured immediately post-clot formation and at each timepoint after removal of old solution and prior to the replacement with fresh solution.

[3] = tested on: fibrin clots from recalcified platelet rich plasma (PRP); assay: Red clot lysis under stagnant conditions, PRP clots; assay type: cell-based, Porcine; settings: for PRP clot lysis over 48 h: DiNAC and NAC at 2 mM
Source text: as §1, §2

white clots = assay: Example 3: thrombolytic activity on white clots, procedures of Examples 1 and 2; assay type: cell-based, Porcine; settings: DiNAC: clot breakup over 10 minutes; comparators at 1 hour
Protocol: In this example, use of DiNAC and other agents as anti-thrombotic agents was tested. A white clot formation in the artery system was modeled by a collagen coated glass capillary tube (Ku DN, Flannery CJ. Development of a flow-through system to create occluding thrombus, Biorheology, 2007; 44(4)273-84). Porcine blood was perfused into the capillary tube using a constant pressure head or a constant flow rate (Para AN, Ku DN. A low-volume, single pass in vitro system of high shear thrombosis in a stenosis, Thrombosis Research, 2013, 131(5):418-24). After clot formation, a thrombolytic agent was perfused into the capillary tube. The detailed capillary tube experimental protocol is summarized below.
In this example, the thrombolytic activity of DiNAC and other lytic agents was tested, using the procedures described in Examples 1 and 2.

FeCl-induced thrombi = settings: NAC treatment alone, in vivo mice model; cited from earlier work
[4] = tested on: platelet-rich thrombi from heparinized human whole blood; assay: Example 4: thrombolysis of human blood thrombi in 3 mm collagen-coated stenotic capillary tubes; assay type: cell-based; settings: perfusion, human whole blood thrombus
Protocol: In this example, an in-vitro randomized trial was performed using heparinized human blood in collagen-coated glass capillary tubes with a designed stenosis, mimicking arterial disease. Heparinized human blood was then infused through 3 mm capillary tubes at a constant flow rate, during which near-occlusive thrombi were formed at the region of stenosis (FIG. 11). DiNAC was then infused at a constant flow rate through the capillary tubes in order to observe thrombolytic activity, using a combination of live pressure monitoring and microscopic image capture. All infusions were control-matched with a phosphate-buffered saline solution in lieu of DiNAC.

[5] = tested on: FeCl3 injury-induced thrombus; design: dose or concentration left out as unconfirmed; settings: after a 60 min treatment; FeCl3 injury in vivo; ADAMTS-13; cited from earlier work
[6] = clinical study; cited from earlier work
[7] = stroke patients, clinical trial; cited from earlier work

Molecule	lysis on perfusion ([1]; 2 mM and 20 mM, 60 min perfusion)	thrombus surface area reduction ([1]; 2 mM, 60 min perfusion)	lysis after 60 min perfusion ([1]; 20 mM, 60 min)	whole blood clot lysis over 48 h ([2]; whole blood clot)	PRP clot lysis over 48 h [3]	thrombolytic activity on white clots (white clots)	reperfusion (FeCl-induced thrombi)	thrombus surface area reduction ([1]; 0.02 mg/ml, 60 min perfusion)	clot dissolution front speed ([2]; fibrin clots, static conditions, over 48 h)	clot weight reduction from baseline ([2]; whole blood clot, after 6 h)	clot weight reduction from baseline ([3]; after 12 h)	effect on clots and flow [4]	reduction of thrombus size [5]	recanalization rate [6]	relative risk reduction versus the placebo [7]
CC(=O)N[C@@H](CS)C(=O)O [NAC, N-acetylcysteine, reference compound]	minimal lysis	< 20%	minimal lysis	no effect on red clots	no effect on red clots	minimal effects with no perfusion at 1 hour	< 40%								
tPA: Recombinant human tissue plasminogen activator, a serine protease converting plasminogen to plasmin				large decrease in clot volume	large decrease in clot volume			23±4%	~3.5 μm/min	26%	36%	did not alter the clots or restore flow	53.2%	less than 30%	30%
